Results as given in patent publication US9273014B2, “Bis(fluoroalkyl)-1,4-benzodiazepinone compounds and prodrugs thereof” (Bristol-Myers Squibb Company, priority 2012, dated 2016).

Legend:
[1] = molecular target: human Notch 3 (Homo sapiens, UniProt Q9UM47); test: Notch-CBF1 Transactivation Assay (Notch 3); type: cell-based; conditions: HeLa cells co-transfected with truncated Notch 3 and CBF1 luciferase reporter; 18 hours incubation
From the text: Notch-CBF1 Transactivation Assay
The Notch-CBF1 (C-promoter binding factor I) cell based transactivation assay is based on the ability of the released Notch intracellular domain fragments (NICDs) to function as transcription factors in conjunction with CBF1 and other nuclear factors. Luciferase assays were used to measure the antagonism of Notch-CBF1 transcriptional activity. HeLa cervical cancer cells are transiently co-transfected with pCDNA3.1/Hygro plasmids containing truncated Notch 1, Notch 2, Notch 3, or Notch 4 receptors and a PGL3 luciferase reporter vector containing 4 copies of CBF1 binding site. The cells were then tested for Notch-CBF1 activity in the absence or presence of test compounds. HeLa cells, maintained in DMEM (high glucose with HEPES), 1× glutamine/penicillin/streptomycin and 10% Fetal Bovine serum, were transiently transfected in a T175 Flask (4.5×10^6 cells/flask) using the Monster Transfection Kit (Minis #MIR2906) according to manufacturers specifications. Table 9 denotes respective DNA quantity for the transfections.
Assay media (5 μL) containing test compounds in final concentrations ranging from 5 μM to 8.4×10^−5 μM (3 fold serial dilutions) were added to the cells and the cell plates were then incubated for 18 hours at 37° C. and 5% CO2. Control wells contained DMSO vehicle (total counts) or 0.5 μM of an in-house small molecule inhibitor (background counts). Duplicates were used for each sample. Luciferase activity was measured after a 20-minute incubation with 50 μl STEADY-GLO® luciferase reagents according to manufacturer's specifications (Promega, Cat. #E2550) and analyzed by Envision plate reader (PerkinElmer, Boston, Mass.).
The antagonist effect of compounds was expressed as 100×[1−(average sample-average background)/(average total−average background)] where sample is the luciferase activity in the presence of test compound, background is equal to the luciferase activity in the presence of the small molecule inhibitor control and the total is signal induced in DMSO wells.

[2] = in vitro; conditions: human, microsomes, pH 7.4

human Notch 3, sequence (Q9UM47 40-2321 limits assumed): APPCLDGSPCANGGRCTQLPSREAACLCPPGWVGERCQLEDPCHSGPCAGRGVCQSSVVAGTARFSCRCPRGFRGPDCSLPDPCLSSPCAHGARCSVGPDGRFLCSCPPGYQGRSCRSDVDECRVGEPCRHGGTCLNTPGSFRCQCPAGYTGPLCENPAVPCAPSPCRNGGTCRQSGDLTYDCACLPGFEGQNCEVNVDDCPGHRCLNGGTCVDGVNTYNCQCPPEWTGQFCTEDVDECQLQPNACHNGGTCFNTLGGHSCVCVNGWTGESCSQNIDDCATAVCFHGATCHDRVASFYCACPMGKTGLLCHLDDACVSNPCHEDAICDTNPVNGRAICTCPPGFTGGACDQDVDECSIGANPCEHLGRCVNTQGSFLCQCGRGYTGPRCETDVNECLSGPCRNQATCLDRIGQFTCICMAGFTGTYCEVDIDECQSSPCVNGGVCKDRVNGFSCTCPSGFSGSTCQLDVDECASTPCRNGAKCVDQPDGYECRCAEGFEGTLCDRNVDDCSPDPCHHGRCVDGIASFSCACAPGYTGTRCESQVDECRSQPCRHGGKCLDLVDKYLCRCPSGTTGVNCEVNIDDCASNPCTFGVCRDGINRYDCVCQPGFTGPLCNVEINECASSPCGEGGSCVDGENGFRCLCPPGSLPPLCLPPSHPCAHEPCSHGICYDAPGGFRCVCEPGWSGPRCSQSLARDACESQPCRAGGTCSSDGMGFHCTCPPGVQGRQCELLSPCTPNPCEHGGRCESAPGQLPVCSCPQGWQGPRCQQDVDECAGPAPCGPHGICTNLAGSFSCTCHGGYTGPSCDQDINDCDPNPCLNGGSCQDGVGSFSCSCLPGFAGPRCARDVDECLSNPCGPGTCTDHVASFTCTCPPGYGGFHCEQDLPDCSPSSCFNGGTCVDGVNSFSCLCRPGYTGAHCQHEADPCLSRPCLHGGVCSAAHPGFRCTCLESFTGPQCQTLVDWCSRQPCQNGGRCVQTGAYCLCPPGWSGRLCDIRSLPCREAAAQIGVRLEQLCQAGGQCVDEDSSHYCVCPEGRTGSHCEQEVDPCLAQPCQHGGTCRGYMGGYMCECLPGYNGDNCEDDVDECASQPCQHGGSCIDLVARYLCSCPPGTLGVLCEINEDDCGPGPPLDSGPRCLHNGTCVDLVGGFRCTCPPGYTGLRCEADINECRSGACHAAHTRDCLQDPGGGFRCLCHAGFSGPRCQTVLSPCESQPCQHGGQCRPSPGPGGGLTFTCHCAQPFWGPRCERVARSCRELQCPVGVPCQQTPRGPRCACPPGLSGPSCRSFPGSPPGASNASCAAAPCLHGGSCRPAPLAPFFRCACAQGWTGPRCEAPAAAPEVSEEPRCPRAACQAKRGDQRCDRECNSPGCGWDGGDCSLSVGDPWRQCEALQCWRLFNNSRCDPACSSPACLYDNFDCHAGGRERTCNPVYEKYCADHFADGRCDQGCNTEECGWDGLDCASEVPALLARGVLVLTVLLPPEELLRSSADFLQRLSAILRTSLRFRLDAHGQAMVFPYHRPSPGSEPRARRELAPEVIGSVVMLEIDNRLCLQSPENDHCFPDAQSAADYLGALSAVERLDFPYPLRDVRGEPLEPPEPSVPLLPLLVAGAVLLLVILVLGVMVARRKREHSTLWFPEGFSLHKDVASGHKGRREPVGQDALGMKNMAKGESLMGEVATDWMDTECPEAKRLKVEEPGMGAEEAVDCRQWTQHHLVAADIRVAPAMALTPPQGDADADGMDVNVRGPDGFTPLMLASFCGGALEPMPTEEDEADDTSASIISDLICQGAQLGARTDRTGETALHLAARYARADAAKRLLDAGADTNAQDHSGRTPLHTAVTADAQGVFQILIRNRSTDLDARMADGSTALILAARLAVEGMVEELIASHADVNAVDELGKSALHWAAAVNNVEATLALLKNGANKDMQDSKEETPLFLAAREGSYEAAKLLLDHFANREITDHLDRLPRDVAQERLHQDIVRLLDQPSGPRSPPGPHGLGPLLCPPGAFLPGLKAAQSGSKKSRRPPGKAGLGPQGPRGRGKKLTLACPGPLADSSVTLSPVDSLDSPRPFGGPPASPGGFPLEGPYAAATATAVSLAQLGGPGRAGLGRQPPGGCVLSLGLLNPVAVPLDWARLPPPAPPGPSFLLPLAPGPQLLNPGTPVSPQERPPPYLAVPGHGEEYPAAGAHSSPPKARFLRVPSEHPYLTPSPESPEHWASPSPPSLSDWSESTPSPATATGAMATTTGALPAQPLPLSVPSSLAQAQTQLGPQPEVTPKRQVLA

| SMILES | IC50 [1] | half-life [2] |
| --- | --- | --- |
| NC(=O)[C@@H](CCC(F)(F)F)[C@@H](CCC(F)(F)F)C(=O)N[C@H]1N=C(c2cccc(C3CC3)c2)c2cccc(Cl)c2NC1=O [Example 25, (2R,3S)—N-((3S)-9-Chloro-5-(3-cyclopropylphenyl)-2-oxo-2,3-dihydro-1H-1,4-benzodiazepin-3-yl)-2,3-bis(3,3,3-trifluoropropyl)succinamide] | 2.9 nM | > 2 h |
| CCc1cccc2c1NC(=O)[C@@H](NC(=O)[C@H](CCC(F)(F)F)[C@H](CCC(F)(F)F)C(N)=O)N=C2c1cccc(Cl)c1 [Example 2, (2R,3S)—N-((3S)-5-(3-Chlorophenyl)-9-ethyl-2-oxo-2,3-dihydro-1H-1,4-benzodiazepin-3-yl)-2,3-bis(3,3,3-trifluoropropyl)succinamide] | 4.3 nM | 0.533 h |
| Cc1cccc(C2=N[C@H](NC(=O)[C@H](CCC(F)(F)F)[C@H](CCC(F)(F)F)C(N)=O)C(=O)Nc3c2cccc3C(F)(F)F)c1 [Example 9, (2R,3S)—N-((3S)-5-(3-Methylphenyl)-2-oxo-9-(trifluoromethyl)-2,3-dihydro-1H-1,4-benzodiazepin-3-yl)-2,3-bis(3,3,3-trifluoropropyl)succinamide] | 3.7 nM | 1.88 h |
| Cc1cccc2c1NC(=O)[C@@H](NC(=O)[C@H](CCC(F)(F)F)[C@H](CCCC(F)(F)F)C(N)=O)N=C2c1cccc(Cl)c1 [Example 8, (2R,3S)—N-((3S)-5-(3-Chlorophenyl)-9-methyl-2-oxo-2,3-dihydro-1H-1,4-benzodiazepin-3-yl)-3-(4,4,4-trifluorobutyl)-2-(3,3,3-trifluoropropyl)succinamide] | 11.6 nM | 1.18 h |
| Cc1cccc(C2=N[C@H](NC(=O)[C@H](CCC(F)(F)F)[C@H](CCCC(F)(F)F)C(N)=O)C(=O)Nc3c2cccc3C(F)(F)F)c1 [Example 11, (2R,3S)—N-((3S)-5-(3-Methylphenyl)-2-oxo-9-(trifluoromethyl)-2,3-dihydro-1H-1,4-benzodiazepin-3-yl)-3-(4,4,4-trifluorobutyl)-2-(3,3,3-trifluoropropyl)succinamide] | – | 0.7 h |
| CCCC[C@H](C(N)=O)[C@@H](CC(C)C)C(=O)N[C@H]1N=C(c2ccc(Cl)cc2)c2ccccc2N(C)C1=O [Comparative Compound 47, reference compound] | – | 0.1 h |
| Cc1ccccc1C1=N[C@H](NC(=O)[C@H](CCC(F)(F)F)[C@H](CCC(F)(F)F)C(N)=O)C(=O)Nc2c(Cl)cccc21 [Example 21, (2R,3S)—N-((3S)-9-Chloro-5-(2-methylphenyl)-2-oxo-2,3-dihydro-1H-1,4-benzodiazepin-3-yl)-2,3-bis(3,3,3-trifluoropropyl)succinamide] | 6.1 nM | 1.78 h |
| NC(=O)[C@@H](CCC(F)(F)F)[C@@H](CCC(F)(F)F)C(=O)N[C@H]1N=C(c2cccc(F)c2)c2cccc(CO)c2NC1=O [Example 37, (2R,3S)—N-((3S)-5-(3-Fluorophenyl)-9-(hydroxymethyl)-2-oxo-2,3-dihydro-1H-1,4-benzodiazepin-3-yl)-2,3-bis(3,3,3-trifluoropropyl)succinamide] | 9.3 nM | 1.02 h |
| CCc1cccc2c1NC(=O)[C@@H](NC(=O)[C@H](CCC(F)(F)F)[C@H](CCC(F)(F)F)C(N)=O)N=C2c1cccc(C)c1 [Example 6, (2R,3S)—N-((3S)-9-Ethyl-5-(3-methylphenyl)-2-oxo-2,3-dihydro-1H-1,4-benzodiazepin-3-yl)-2,3-bis(3,3,3-trifluoropropyl)succinamide] | 4.5 nM | 0.55 h |
| COc1cccc2c1NC(=O)[C@@H](NC(=O)[C@H](CCC(F)(F)F)[C@H](CCC(F)(F)F)C(N)=O)N=C2c1ccc(Cl)cn1 [Example 34, (2R,3S)—N-((3S)-5-(5-Chloro-2-pyridinyl)-9-methoxy-2-oxo-2,3-dihydro-1H-1,4-benzodiazepin-3-yl)-2,3-bis(3,3,3-trifluoropropyl)succinamide] | – | 1.93 h |
| Cc1cccc(C2=N[C@H](NC(=O)[C@H](CCC(F)(F)F)[C@H](CCCC(F)(F)F)C(N)=O)C(=O)Nc3c(Cl)cccc32)c1 [Example 17, (2R,3S)—N-((3S)-9-Chloro-5-(3-methylphenyl)-2-oxo-2,3-dihydro-1H-1,4-benzodiazepin-3-yl)-3-(4,4,4-trifluorobutyl)-2-(3,3,3-trifluoropropyl)succinamide] | 2.4 nM | 0.933 h |
| Cc1ccc(C2=N[C@H](NC(=O)[C@H](CCC(F)(F)F)[C@H](CCC(F)(F)F)C(N)=O)C(=O)Nc3ccccc32)cc1 [Example 36, (2R,3S)—N-((3S)-5-(4-Methylphenyl)-2-oxo-2,3-dihydro-1H-1,4-benzodiazepin-3-yl)-2,3-bis(3,3,3-trifluoropropyl)succinamide] | 3 nM | > 2 h |
| C=CC[C@H](C(N)=O)[C@@H](CC(C)C)C(=O)N[C@H]1N=C(c2ccccc2)c2cc(Cl)ccc2N(C)C1=O [Comparative Compound 46, reference compound] | – | 0.1 h |
| CCC[C@H](C(N)=O)[C@@H](CC(C)C)C(=O)N[C@H]1N=C(c2ccccc2)c2ccccc2N(C)C1=O [Comparative Compound 45, reference compound] | – | 0.133 h |
| Cc1cccc2c1NC(=O)[C@@H](NC(=O)[C@H](CCC(F)(F)F)[C@H](CCC(F)(F)F)C(N)=O)N=C2c1cccc(Cl)c1 [Example 7, (2R,3S)—N-((3S)-5-(3-Chlorophenyl)-9-methyl-2-oxo-2,3-dihydro-1H-1,4-benzodiazepin-3-yl)-2,3-bis(3,3,3-trifluoropropyl)succinamide] | – | > 2 h |
| Cc1cccc(C2=N[C@H](NC(=O)[C@H](CCC(F)(F)F)[C@H](CCC(F)(F)F)C(N)=O)C(=O)Nc3ccccc32)c1 [Example 32, (2R,3S)—N-((3S)-5-(3-Methylphenyl)-2-oxo-2,3-dihydro-1H-1,4-benzodiazepin-3-yl)-2,3-bis(3,3,3-trifluoropropyl)succinamide] | – | 1.37 h |
| Cc1cccc(C2=N[C@H](NC(=O)[C@H](CCC(F)(F)F)[C@H](CCC(F)(F)F)C(N)=O)C(=O)Nc3c2cccc3C(C)C)c1 [Example 12, (2R,3S)—N-((3S)-9-Isopropyl-5-(3-methylphenyl)-2-oxo-2,3-dihydro-1H-1,4-benzodiazepin-3-yl)-2,3-bis(3,3,3-trifluoropropyl)succinamide] | 3.2 nM | 0.883 h |
| C=CC[C@H](C(N)=O)[C@@H](CC(C)C)C(=O)N[C@H]1N=C(c2ccccc2)c2ccccc2N(CCC)C1=O [Comparative Compound 48, reference compound] | – | 0.05 h |
| CC(C)c1cccc2c1NC(=O)[C@@H](NC(=O)[C@H](CCC(F)(F)F)[C@H](CCC(F)(F)F)C(N)=O)N=C2c1ccccc1 [Example 13, (2R,3S)—N-((3S)-9-Isopropyl-2-oxo-5-phenyl-2,3-dihydro-1H-1,4-benzodiazepin-3-yl)-2,3-bis(3,3,3-trifluoropropyl)succinamide] | – | 0.8 h |
| COc1cccc2c1NC(=O)[C@@H](NC(=O)[C@H](CCC(F)(F)F)[C@H](CCC(F)(F)F)C(N)=O)N=C2c1cccc(C)c1 [Example 29, (2R,3S)—N-((3S)-5-(3-Methylphenyl)-9-methoxy-2-oxo-2,3-dihydro-1H-1,4-benzodiazepin-3-yl)-2,3-bis(3,3,3-trifluoropropyl)succinamide] | – | 1.63 h |
| Cc1cccc(C2=N[C@H](NC(=O)[C@H](CCC(F)(F)F)[C@H](CCCC(F)(F)F)C(N)=O)C(=O)Nc3c(OC4CC4)cccc32)c1 [Example 14, (2R,3S)—N-((3S)-9-(Cyclopropyloxy)-5-(3-methylphenyl)-2-oxo-2,3-dihydro-1H-1,4-benzodiazepin-3-yl)-3-(4,4,4-trifluorobutyl)-2-(3,3,3-trifluoropropyl)succinamide] | – | 0.933 h |
| NC(=O)[C@@H](CCC(F)(F)F)[C@@H](CCC(F)(F)F)C(=O)N[C@H]1N=C(c2ccc(CO)cc2)c2ccccc2NC1=O [Example 30, (2R,3S)—N-((3S)-5-(4-(Hydroxymethyl)phenyl)-2-oxo-2,3-dihydro-1H-1,4-benzodiazepin-3-yl)-2,3-bis(3,3,3-trifluoropropyl)succinamide] | – | 1.53 h |
| Cc1cccc(C2=N[C@H](NC(=O)[C@H](CCC(F)(F)F)[C@H](CCC(F)(F)F)C(N)=O)C(=O)Nc3c(OC4CC4)cccc32)c1 [Example 15, (2R,3S)—N-((3S)-9-(Cyclopropyloxy)-5-(3-methylphenyl)-2-oxo-2,3-dihydro-1H-1,4-benzodiazepin-3-yl)-2,3-bis(3,3,3-trifluoropropyl)succinamide] | – | 1.68 h |
| COc1ccc(C2=N[C@H](NC(=O)[C@H](CCC(F)(F)F)[C@H](CCC(F)(F)F)C(N)=O)C(=O)Nc3ccccc32)cc1 [Example 35, (2R,3S)—N-((3S)-5-(4-Methoxyphenyl)-2-oxo-2,3-dihydro-1H-1,4-benzodiazepin-3-yl)-2,3-bis(3,3,3-trifluoropropyl)succinamide] | – | 1.97 h |
